The results in this text go back to US20090163528A1, “Pharmaceutical composition having analgesic effects” (priority 2004, published 2009).

Molecules are shown by their SMILES. Where two headings read alike, the source gives them in different places.

Format in all cases: in vivo
For assay [1], the system named is Kunming breed mice. Description: Body twisting test, skin administration of fuziline (Test 9). Conditions: 200 mg/kg ig.; acetic acid 30 minutes after. Here is the method: Divide randomly the 40 Kunming breed mice, weighing 18-22 g, into 4 groups with equal number of each gender and each group. […] The first group is the negative control group. Smear an even layer of Vaseline plaster 0.1 g/piece onto the hair-disposed area of the of negative control group mice, covered lightly with a piece of gauze (1.5 cm×1.5 cm). The second group, as the positive control group is given stomach perfusion with 200 mg/kg of aspirin (20 times the practice use). […] Except that the mice of the second group are injected into the stomach cavity with 0.6% glacial acetic acid solution 30 minutes after the smearing, the mice of all other groups are injected into the stomach cavity with 0.6% glacial acetic acid solution 1.5 hours after the smearing; observe the number of body twisting of each mouse 5 to 10 minutes after the injection; make statistical analysis of the data to calculate the increasing rate of pain threshold and the standard deviation of each group; compare the intergroup differences between each drug group and the negative control group with t-test.

The test system of assay [2] is Kunming breed mice. Description: Body twisting test, mixtures of fuziline, benzoylmesaconitine, mesaconitine and hypaconitine in different proportions (Test 4). The settings on record: aspirin 200 mg/kg stomach perfusion. Here is the method: Enteric coated aspirin tablet, white, 25 mg/pill, supplied by Xuzhou Enhua Pharmaceuticals Co., Ltd, batch No.: 20050312; take 4 pills of enteric coated aspirin tablet; grind and add with distilled water up to 10 ml to compound 10 mg/ml of solution composed of aspirin;
Divide at random the 70 Kunming breed mice, weighing 18-22 g, into 7 groups with equal number of each gender and each group, with the first group as the negative control group and the second group as the positive control group; perfuse the stomach of the first group mice with 0.2 ml/10 g of 10% alcohol; perfuse the stomach of the second group mice with 200 mg/kg (20 times the practice dose) of aspirin; the 3rd, 4th, 5th, 6th and 7th group are groups in five different proportions of […], benzoylmesaconitine, mesaconitine and hypaconitine; perfuse the groups with solution in five different proportions of […], benzoylmesaconitine, mesaconitine and hypaconitine; […]; inject into the stomach cavity of the mice with 0.2 ml of 0.6% glacial acetic acid 30 minutes after administration; observe the number of body twisting of each mouse 5 to 10 minutes after the injection of acetic acid; make statistical analysis of the data to calculate the increasing rate of pain threshold and the standard deviation of each group; compare the intergroup differences between each drug group and the negative control group with t-test.

Assay [3] has as its system Kunming breed mice. Description: Body twisting test, intramuscular injection of fuziline (Test 8). The settings on record: 200 mg/kg ig.
Assay [4] relates to Kunming breed mice. The settings on record: 200 mg/kg stomach perfusion.
In assay [5] the test system is Kunming breed mice. Description: Body twisting test, mixtures of fuziline and benzoylmesaconitine in different proportions (Test 7). Conditions: aspirin 200 mg/kg stomach perfusion.
Assay [6] relates to Kunming breed mice. Conditions: aspirin 200 mg/kg stomach perfusion.
Assay [7] relates to Kunming breed mice. Description: Body twisting test, mixtures of fuziline and hypaconitine in different proportions (Test 6). The settings on record: aspirin 200 mg/kg stomach perfusion.

On to `CC(=O)Oc1ccccc1C(=O)O` [Aspirin, aspirin], for which the “Body twisting number ( x ± SD)” value turned out to be 5.1 ± 6.0 in the assay with Kunming breed mice [1]; 3.3 ± 3.2 in the assay with Kunming breed mice [2]; 5.1 ± 6.0 in the assay on Kunming breed mice [3]; 3.1 ± 3.3 with Kunming breed mice [5]; 3.0 ± 3.3 in the assay on Kunming breed mice [6]; 3.1 ± 3.3 with Kunming breed mice [7]. Also, the Pain suppression rate in the assay on Kunming breed mice [1] worked out at 81.6%; with Kunming breed mice [2], 88.0%; with Kunming breed mice [3] it was 81.6%; in the assay on Kunming breed mice [4] (Table 2) it was 90.96%; in the assay with Kunming breed mice [4] (Table 3) it was 92.11%; in the assay on Kunming breed mice [5], 82.7%. The Pain suppression rate with Kunming breed mice [6] and in the assay on Kunming breed mice [7] was 82.7% in each case. Besides, the “Body twisting number ( χ ± SD)” value with Kunming breed mice [4] (Table 2) amounted to 3.1 ± 3.3; with Kunming breed mice [4] (Table 3), 3.1 ± 3.2.
